# Columns and labels:
# Assay type in all cases: cell-based
# Enterobacter cloacae = test: MIC against Gram-negative bacteria: Enterobacter cloacae; details: for MIC against E. cloacae / MIC (μg/mL) E. cloacae: 5×10^5 CFU/mL
# In short: (§1)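 Inocula prepared by growing LB cultures at 37° C to 0.5 McFarland, centrifuging at 4000×g, and resuspending in fresh medium. Final density 5×10^5 CFU/mL per well with two-fold dilutions of purified EGF domain protein; shaking incubation at 37° C.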
# Aeromonas hydrophila = test: MIC against Gram-negative bacteria: Aeromonas hydrophila; details: for MIC against A. hydrophila / MIC (μg/mL) A. hydrophila: 5×10^5 CFU/mL
# In short: as §1
# Serratia marcescens = test: MIC against Gram-negative bacteria: Serratia marcescens; details: for MIC against S. marcescens / MIC (μg/mL) S. marcescens: 5×10^5 CFU/mL
# In short: as §1
# Citrobacter diversus = test: MIC against Gram-negative bacteria: Citrobacter diversus; details: for MIC against C. diversus / MIC (μg/mL) C. diversus: 5×10^5 CFU/mL
# In short: as §1
# E. coli BL21 = test: MIC against Gram-negative bacteria: E. coli BL21; details: for MIC against E. coli BL21 / MIC (μg/mL) E. coli BL21: 5×10^5 CFU/mL
# In short: as §1
# Pseudomonas aeruginosa = test: MIC against Gram-negative bacteria: Pseudomonas aeruginosa; details: for MIC against P. aeruginosa / MIC (μg/mL) P. aeruginosa: 5×10^5 CFU/mL
# In short: as §1
# Moraxella catarrhalis = test: MIC against Gram-negative bacteria: Moraxella catarrhalis; details: for MIC against M. catarrhalis / MIC (μg/mL) M. catarrhalis: 5×10^5 CFU/mL
# In short: as §1
# Proteus mirabilis = test: MIC against Gram-negative bacteria: Proteus mirabilis; details: for MIC against P. mirabilis / MIC (μg/mL) P. mirabilis: 5×10^5 CFU/mL
# In short: as §1
# E. coli DH5α = test: Antibacterial activity: MIC and growth curve against E. coli DH5α in 96-well plate; details: minimal inhibitory concentration against E. coli DH5α; 96-well plate, 5×10^5 CFU/mL, 37° C., judged after 8 h
# In short: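 Log-phase bacteria (OD600 ~0.5) resuspended in LB at 5×10^5 CFU/mL, exposed to recombinant protein at 50, 25, 12.5 μg/mL final in triplicate, 37 °C shaking at 175 rpm. OD600 read every 30 min; MIC is lowest concentration showing no growth.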
# Proteus vulgaris = test: MIC against Gram-negative bacteria: Proteus vulgaris; details: for MIC against P. vulgaris / MIC (μg/mL) P. vulgaris: 5×10^5 CFU/mL
# In short: as §1
# Klebsiella pneumonia = test: MIC against Gram-negative bacteria: Klebsiella pneumonia; details: for MIC against K. pneumonia / MIC (μg/mL) K. pneumonia: 5×10^5 CFU/mL
# In short: as §1
# [1] = E. cloacae, 10 h cultivation at 37° C.
# [2] = A. hydrophila, 10 h cultivation at 37° C.
# [3] = S. marcescens, 10 h cultivation at 37° C.
# [4] = C. diversus, 10 h cultivation at 37° C.
# [5] = E. coli BL21, 10 h cultivation at 37° C.
# [6] = P. aeruginosa, 10 h cultivation at 37° C.
# [7] = M. catarrhalis, 10 h cultivation at 37° C.
# [8] = P. mirabilis, 10 h cultivation at 37° C.
# [9] = P. vulgaris, 10 h cultivation at 37° C.
# [10] = K. pneumonia, 10 h cultivation at 37° C.
# [11] = Enterobacter cloacae, 96-well plate, 37° C., 10 h
# [12] = Aeromonas hydrophila, 96-well plate, 37° C., 10 h
# [13] = Serratia marcescens, 96-well plate, 37° C., 10 h
# [14] = Citrobacter diversus, 96-well plate, 37° C., 10 h
# [15] = E. coli BL21, 96-well plate, 37° C., 10 h
# [16] = Pseudomonas aeruginosa, 96-well plate, 37° C., 10 h
# [17] = Moraxella catarrhalis, 96-well plate, 37° C., 10 h
# [18] = Proteus mirabilis, 96-well plate, 37° C., 10 h
# [19] = Proteus vulgaris, 96-well plate, 37° C., 10 h
# [20] = Klebsiella pneumonia, 96-well plate, 37° C., 10 h
substance,measurement,setting,value
PRT540 (CVCHGHADACDAKDPTDPFRLQCTCQHNTCGGTCDRCCPGFNQQPWKPATANSANECQS; listed as Homo sapiens),MIC against E. cloacae,"Enterobacter cloacae; 96-well plate, 37° C., 10 h",50 µg/mL
same,MIC against A. hydrophila,"Aeromonas hydrophila; 96-well plate, 37° C., 10 h",12.5 µg/mL
same,MIC against S. marcescens,"Serratia marcescens; 96-well plate, 37° C., 10 h",50 µg/mL
same,MIC against C. diversus,"Citrobacter diversus; 96-well plate, 37° C., 10 h",25 µg/mL
same,MIC against E. coli BL21,"E. coli BL21; 96-well plate, 37° C., 10 h",50 µg/mL
same,MIC against P. aeruginosa,"Pseudomonas aeruginosa; 96-well plate, 37° C., 10 h",12.5 µg/mL
same,MIC against M. catarrhalis,"Moraxella catarrhalis; 96-well plate, 37° C., 10 h",50 µg/mL
same,MIC against P. mirabilis,"Proteus mirabilis; 96-well plate, 37° C., 10 h",25 µg/mL
same,MIC,E. coli DH5α,12.5 µg/mL
same,MIC against P. vulgaris,"Proteus vulgaris; 96-well plate, 37° C., 10 h",12.5 µg/mL
same,MIC against K. pneumonia,"Klebsiella pneumonia; 96-well plate, 37° C., 10 h",12.5 µg/mL
PRT964 (NIDDCASNPCTFGVCRDGINRYDCVCQPGFTGPLCN; listed as Homo sapiens),MIC,Enterobacter cloacae; [1],12.5 µg/mL
same,MIC,Aeromonas hydrophila; [2],25 µg/mL
same,MIC,Serratia marcescens; [3],50 µg/mL
same,MIC,Citrobacter diversus; [4],50 µg/mL
same,MIC,E. coli BL21; [5],25 µg/mL
same,MIC,Pseudomonas aeruginosa; [6],50 µg/mL
same,MIC,Moraxella catarrhalis; [7],25 µg/mL
same,MIC,Proteus mirabilis; [8],25 µg/mL
same,MIC,E. coli DH5α,12.5 µg/mL
same,MIC,Proteus vulgaris; [9],12.5 µg/mL
same,MIC,Klebsiella pneumonia; [10],25 µg/mL
PRT512 (CACPLISSSNNFSPSCVAEGLDDYRCTACPRGYEGQYCERCAPGYTGSPGNPGGSCQE; listed as Homo sapiens),MIC against E. cloacae,"Enterobacter cloacae; 96-well plate, 37° C., 10 h",50 µg/mL
same,MIC against A. hydrophila,"Aeromonas hydrophila; 96-well plate, 37° C., 10 h",25 µg/mL
same,MIC against S. marcescens,"Serratia marcescens; 96-well plate, 37° C., 10 h",12.5 µg/mL
same,MIC against C. diversus,"Citrobacter diversus; 96-well plate, 37° C., 10 h",12.5 µg/mL
same,MIC against E. coli BL21,"E. coli BL21; 96-well plate, 37° C., 10 h",25 µg/mL
same,MIC against P. aeruginosa,"Pseudomonas aeruginosa; 96-well plate, 37° C., 10 h",12.5 µg/mL
same,MIC against M. catarrhalis,"Moraxella catarrhalis; 96-well plate, 37° C., 10 h",25 µg/mL
same,MIC against P. mirabilis,"Proteus mirabilis; 96-well plate, 37° C., 10 h",50 µg/mL
same,MIC,E. coli DH5α,50 µg/mL
same,MIC against P. vulgaris,"Proteus vulgaris; 96-well plate, 37° C., 10 h",25 µg/mL
same,MIC against K. pneumonia,"Klebsiella pneumonia; 96-well plate, 37° C., 10 h",25 µg/mL
PRT882 (SAKQCDSYPCKNNAVCKDGWNRFICDCTGTGYWGRTCE; listed as Homo sapiens),MIC (μg/mL) E. cloacae,Enterobacter cloacae; [1],25 µg/mL
same,MIC (μg/mL) A. hydrophila,Aeromonas hydrophila; [2],100 µg/mL
same,MIC (μg/mL) S. marcescens,Serratia marcescens; [3],50 µg/mL
same,MIC (μg/mL) C. diversus,Citrobacter diversus; [4],50 µg/mL
same,MIC (μg/mL) E. coli BL21,E. coli BL21; [5],12.5 µg/mL
same,MIC (μg/mL) P. aeruginosa,Pseudomonas aeruginosa; [6],25 µg/mL
same,MIC (μg/mL) M. catarrhalis,Moraxella catarrhalis; [7],12.5 µg/mL
same,MIC (μg/mL) P. mirabilis,Proteus mirabilis; [8],50 µg/mL
same,MIC,E. coli DH5α,25 µg/mL
same,MIC (μg/mL) P. vulgaris,Proteus vulgaris; [9],12.5 µg/mL
same,MIC (μg/mL) K. pneumonia,Klebsiella pneumonia; [10],12.5 µg/mL
PRT1352 (SEPECPGNCHLRGRCIDGQCICDDGFTGEDCS; listed as Homo sapiens),MIC against E. cloacae,"Enterobacter cloacae; Enterobacter cloacae, 10 h cultivation at 37° C.",12.5 µg/mL
same,MIC against A. hydrophila,"Aeromonas hydrophila; Aeromonas hydrophila, 10 h cultivation at 37° C.",12.5 µg/mL
same,MIC against S. marcescens,"Serratia marcescens; Serratia marcescens, 10 h cultivation at 37° C.",25 µg/mL
same,MIC against C. diversus,"Citrobacter diversus; Citrobacter diversus, 10 h cultivation at 37° C.",50 µg/mL
same,MIC against E. coli BL21,E. coli BL21; [5],12.5 µg/mL
same,MIC against P. aeruginosa,"Pseudomonas aeruginosa; Pseudomonas aeruginosa, 10 h cultivation at 37° C.",12.5 µg/mL
same,MIC against M. catarrhalis,"Moraxella catarrhalis; Moraxella catarrhalis, 10 h cultivation at 37° C.",12.5 µg/mL
same,MIC against P. mirabilis,"Proteus mirabilis; Proteus mirabilis, 10 h cultivation at 37° C.",25 µg/mL
same,MIC,E. coli DH5α,12.5 µg/mL
same,MIC against P. vulgaris,"Proteus vulgaris; Proteus vulgaris, 10 h cultivation at 37° C.",50 µg/mL
same,MIC against K. pneumonia,"Klebsiella pneumonia; Klebsiella pneumonia, 10 h cultivation at 37° C.",12.5 µg/mL
PRT83 (DDNVCLREPCENYMKCVSVLRFDSSAPFLASASTLFRPIQPIAGLRCRCPPGFTGDFCE; listed as Homo sapiens),MIC (μg/mL) E. cloacae,Enterobacter cloacae; [11],25 µg/mL
same,MIC (μg/mL) A. hydrophila,Aeromonas hydrophila; [12],12.5 µg/mL
same,MIC (μg/mL) S. marcescens,Serratia marcescens; [13],12.5 µg/mL
same,MIC (μg/mL) C. diversus,Citrobacter diversus; [14],25 µg/mL
same,MIC (μg/mL) E. coli BL21,E. coli BL21; [15],12.5 µg/mL
same,MIC (μg/mL) P. aeruginosa,Pseudomonas aeruginosa; [16],25 µg/mL
same,MIC (μg/mL) M. catarrhalis,Moraxella catarrhalis; [17],12.5 µg/mL
same,MIC (μg/mL) P. mirabilis,Proteus mirabilis; [18],12.5 µg/mL
same,MIC,E. coli DH5α,12.5 µg/mL
same,MIC (μg/mL) P. vulgaris,Proteus vulgaris; [19],12.5 µg/mL
same,MIC (μg/mL) K. pneumonia,Klebsiella pneumonia; [20],12.5 µg/mL
PRT24 (ELDLCYSNPCRNGGACARREGGYTCVCRPRFTGEDCE; listed as Homo sapiens),MIC (μg/mL) E. cloacae,Enterobacter cloacae; [11],12.5 µg/mL
same,MIC (μg/mL) A. hydrophila,Aeromonas hydrophila; [12],12.5 µg/mL
same,MIC (μg/mL) S. marcescens,Serratia marcescens; [13],25 µg/mL
same,MIC (μg/mL) C. diversus,Citrobacter diversus; [14],25 µg/mL
same,MIC (μg/mL) E. coli BL21,E. coli BL21; [15],25 µg/mL
same,MIC (μg/mL) P. aeruginosa,Pseudomonas aeruginosa; [16],12.5 µg/mL
same,MIC (μg/mL) M. catarrhalis,Moraxella catarrhalis; [17],12.5 µg/mL
same,MIC (μg/mL) P. mirabilis,Proteus mirabilis; [18],25 µg/mL
same,MIC,E. coli DH5α,12.5 µg/mL
same,MIC (μg/mL) P. vulgaris,Proteus vulgaris; [19],12.5 µg/mL
same,MIC (μg/mL) K. pneumonia,Klebsiella pneumonia; [20],25 µg/mL
